Measured values reported in the OligoGym collection.
After the bases stand the sugars from the 5' end (letter, count) and the backbone: PS all phosphorothioate, else s phosphorothioate and o phosphodiester by linkage. Methylation of C is not given here. e = 2'-O-(2-methoxyethyl) (MOE); k = constrained ethyl (cEt); d = 2'-deoxy (DNA); m = 2'-O-methyl

Target: HSD17B13
Details: ASO, HepaRG

Row | Sequence | target mRNA inhibition (1 µM) | further results
1 | AACTAGAACTCCCAAC (sugars k3 d10 k3, PS) | 0% | –
2 | GAGTTGCACCGTTTTG (sugars k3 d10 k3, PS) | 48% | –
3 | TTAAGATACCCAGGTT (sugars kkdddddddddkekek, PS) | 48% | –
4 | TGGAATGCTACTTGAA (sugars k3 d10 k3, PS) | 85% | target mRNA inhibition (0.02 µM): 0%; target mRNA inhibition (0.078 µM): 22%; target mRNA inhibition (0.313 µM): 55%; target mRNA inhibition (1.25 µM): 71%; target mRNA inhibition (5 µM): 90%
5 | GTAATTGCATCTGCTC (sugars k3 d10 k3, PS) | 51% | –
6 | GTCTAAATTATTGCCT (sugars k3 d10 k3, PS) | 45% | –
7 | CACCAATGCAGTTTGT (sugars k3 d10 k3, PS) | 42% | –
8 | TTCCAAATCAGGTAGT (sugars k3 d10 k3, PS) | 12% | –
9 | CTCCAAATTCCCAACC (sugars k3 d10 k3, PS) | 31% | –
10 | TACAGACTAAGGGACC (sugars k3 d10 k3, PS) | 68% | –
11 | TAAGATACCCAGGTTG (sugars k3 d10 k3, PS) | 39% | –
12 | TCAAAAAGGCCCAAGG (sugars k3 d10 k3, PS) | 46% | –
13 | CAAACCTTGAATGAGT (sugars k3 d10 k3, PS) | 53% | –
14 | GACTGCTGCTAGTGCC (sugars k3 d1 m1 d8 k3, PS) | 60% | –
15 | AGACAAGAGTTCTTGC (sugars k3 d10 k3, PS) | 30% | –
16 | CTACACTAATATTGAG (sugars k3 d10 k3, PS) | 20% | –
17 | GACCAAGTAGCTTACA (sugars k3 d10 k3, PS) | 28% | –
18 | GTTAGCAGCTAAAATC (sugars k3 d10 k3, PS) | 45% | –
19 | GCTCTATTGGGCCAGG (sugars k3 d10 k3, PS) | 47% | –
20 | CTATCAGACTTCTTAC (sugars k3 d10 k3, PS) | 39% | –
21 | AACCAATTATATGAGG (sugars k3 d10 k3, PS) | 38% | –
22 | GCACCGTTTTGGGCTA (sugars kkdddddddddkekek, PS) | 49% | –
23 | ACTTACCAATATGGGA (sugars k3 d10 k3, PS) | 0% | –
24 | TGTCATAAAAATCGCT (sugars k3 d10 k3, PS) | 57% | –
25 | ATCCTATATACATCCA (sugars k3 d9 k3 e1, PS) | 75% | target mRNA inhibition (0.02 µM): 0%; target mRNA inhibition (0.078 µM): 7%; target mRNA inhibition (0.313 µM): 39%; target mRNA inhibition (1.25 µM): 55%; target mRNA inhibition (5 µM): 76%

Row | Sequence | target mRNA inhibition (1 µM) | further results
26 | GCAAGCCAACAGAGAG (sugars k3 d10 k3, PS) | 52% | –
27 | TAAGAGGCATGAAAGG (sugars k3 d9 k3 e1, PS) | 36% | –
28 | CCTGATTTAGAGAGCG (sugars k3 d10 k3, PS) | 42% | –
29 | TAGTAATCACAAGTAA (sugars kkdddddddddkekek, PS) | 55% | –
30 | AGTTAGTATAGTTATC (sugars kkdddddddddkekek, PS) | 47% | –
31 | TTGGTTGGAGGCTGTA (sugars k3 d10 k3, PS) | 60% | –
32 | AAAGACTTTGAGACTC (sugars kkdddddddddkekek, PS) | 45% | –
33 | ATATGTCCAGGTTGAG (sugars k3 d9 k3 e1, PS) | 71% | –
34 | AGGATAGTCCATGCAA (sugars k3 d10 k3, PS) | 64% | –
35 | CCGTTTTGGGCTAATG (sugars k3 d9 k3 e1, PS) | 69% | –
36 | TACATTCTTCAGGTGT (sugars k3 d10 k3, PS) | 61% | –
37 | CTAATGTATGAGGTCT (sugars k3 d10 k3, PS) | 46% | –
38 | TAGTAATCACAAGTAA (sugars k3 d1 m1 d8 k3, PS) | 38% | –
39 | TGTATTAAGACAGTTG (sugars k3 d10 k3, PS) | 34% | –
40 | CAGTUTTCCTCATGAT (sugars k3 d1 m1 d8 k3, PS) | 0% | –
41 | TGCTACTTGAACAGTC (sugars k3 d10 k3, PS) | 81% | target mRNA inhibition (0.02 µM): 3%; target mRNA inhibition (0.078 µM): 22%; target mRNA inhibition (0.313 µM): 49%; target mRNA inhibition (1.25 µM): 78%; target mRNA inhibition (5 µM): 89%
42 | TAAGGTAAACTAAAGT (sugars k3 d10 k3, PS) | 9% | –
43 | CCTCTAAGTTAGCCCC (sugars kkdddddddddkekek, PS) | 20% | –
44 | TAACTTCATAGTGGAC (sugars k3 d10 k3, PS) | 76% | –
45 | AGTTATTAGAAGTCAG (sugars k3 d10 k3, PS) | 54% | –
46 | AAACTAGTGGTAATGG (sugars k3 d10 k3, PS) | 47% | –
47 | CGTTTACTCACTTCTG (sugars k3 d10 k3, PS) | 21% | –
48 | TGATATTCTGTGGCAT (sugars k3 d9 k3 e1, PS) | 74% | target mRNA inhibition (0.02 µM): 8%; target mRNA inhibition (0.078 µM): 23%; target mRNA inhibition (0.313 µM): 40%; target mRNA inhibition (1.25 µM): 67%; target mRNA inhibition (5 µM): 90%
49 | AAGTTCTGATGTCAGA (sugars k3 d10 k3, PS) | 7% | –
50 | ATCAGTTTTCCTCATG (sugars k3 d10 k3, PS) | 48% | –

Row | Sequence | target mRNA inhibition (1 µM) | further results
51 | TATTGATATACGATGG (sugars k3 d10 k3, PS) | 16% | –
52 | CTACCTCTAAGTTAGC (sugars k3 d10 k3, PS) | 6% | –
53 | TAAACTGTATGCCTCT (sugars k3 d10 k3, PS) | 49% | –
54 | TCTTATAAGACTATAA (sugars k3 d10 k3, PS) | 17% | –
55 | GAGTATAAATGGCAAT (sugars k3 d10 k3, PS) | 53% | –
56 | GTCTTAAACCTTCCCT (sugars k3 d10 k3, PS) | 63% | –
57 | ATGAAGTTAGTATAGT (sugars k3 d10 k3, PS) | 55% | –
58 | TGATACACCAATGCAG (sugars k3 d1 m1 d8 k3, PS) | 38% | –
59 | AATAATAGCTCTATTG (sugars k3 d1 m1 d8 k3, PS) | 16% | –
60 | CTTGATGTAGTGGGAG (sugars k3 d1 m1 d8 k3, PS) | 67% | –
61 | AAACTTCACCAACGAC (sugars k3 d10 k3, PS) | 27% | –
62 | TGCAAAATGTGATGCC (sugars k3 d10 k3, PS) | 69% | –
63 | AGCTTTGCAGCATTGA (sugars k3 d10 k3, PS) | 62% | –
64 | CCTTCTGGTTCAGTCC (sugars k3 d10 k3, PS) | 72% | target mRNA inhibition (0.02 µM): 9%; target mRNA inhibition (0.078 µM): 20%; target mRNA inhibition (0.313 µM): 39%; target mRNA inhibition (1.25 µM): 68%; target mRNA inhibition (5 µM): 89%
65 | TTTCTTATGTAATAGC (sugars kkdddddddddkekek, PS) | 60% | –
66 | TAGCTGTGCACTCATT (sugars k3 d10 k3, PS) | 40% | –
67 | CCAGGTTGAGATAAAG (sugars k3 d10 k3, PS) | 49% | –
68 | AGCATTCCATGATTAA (sugars k3 d10 k3, PS) | 47% | –
69 | AGTAGTAATTCTAAAC (sugars k3 d10 k3, PS) | 23% | –
70 | TAGCTGTGCACTCATT (sugars k3 d9 k3 e1, PS) | 66% | target mRNA inhibition (0.02 µM): 3%; target mRNA inhibition (0.078 µM): 0%; target mRNA inhibition (0.313 µM): 8%; target mRNA inhibition (1.25 µM): 57%; target mRNA inhibition (5 µM): 76%
71 | CTGTAGGACTCTGCTC (sugars k3 d10 k3, PS) | 48% | –
72 | ATACTAATGTCCAAGG (sugars k3 d10 k3, PS) | 89% | target mRNA inhibition (0.02 µM): 12%; target mRNA inhibition (0.078 µM): 43%; target mRNA inhibition (0.313 µM): 94%; target mRNA inhibition (1.25 µM): 84%
73 | CTCCACACCGCGCTTA (sugars k3 d10 k3, PS) | 7% | –
74 | TAAAATATGTCCAGGT (sugars k3 d10 k3, PS) | 75% | –
75 | AGGCTGTAAGAGTCAG (sugars kkdddddddddkekek, PS) | 38% | –

Row | Sequence | target mRNA inhibition (1 µM) | further results
76 | AACTGAGCTAGACAAT (sugars k3 d10 k3, PS) | 44% | –
77 | CTTGATCTCTTAGCTG (sugars kkdddddddddkekek, PS) | 49% | –
78 | GTGGGAGTCGGATTAT (sugars k3 d10 k3, PS) | 37% | –
79 | TTGTCTAAACATCTCT (sugars k3 d10 k3, PS) | 60% | –
80 | TACGACTTCCTTCTAA (sugars k3 d10 k3, PS) | 67% | –
81 | TTTGAGCCTAAAATTG (sugars k3 d10 k3, PS) | 26% | –
82 | AGACAGACCAAGTAGC (sugars k3 d10 k3, PS) | 21% | –
83 | CTTGATCTCTTAGCTG (sugars k3 d1 m1 d8 k3, PS) | 32% | –
84 | GACCTCTGTGAAAGCC (sugars k3 d10 k3, PS) | 46% | –
85 | AGCTAACTCAGGCTGT (sugars k3 d10 k3, PS) | 14% | –
86 | TTCCATCTATCAGACT (sugars kkdddddddddkekek, PS) | 33% | –
87 | TGAGATGGGCAAGGCC (sugars k3 d10 k3, PS) | 53% | –
88 | CAACAGTTTAGATTGC (sugars k3 d10 k3, PS) | 66% | –
89 | TAACTAACCTGACACA (sugars k3 d10 k3, PS) | 57% | –
90 | GAATCATTCAGTAGCT (sugars k3 d10 k3, PS) | 65% | –
91 | GTGTAAGCTGAGAGTT (sugars k3 d9 k3 e1, PS) | 45% | –
92 | GGGATAAACTGTTCTT (sugars k3 d10 k3, PS) | 47% | –
93 | ATGTCTTGGTAATCTC (sugars k3 d10 k3, PS) | 23% | –
94 | TGCATCTTAAGATACC (sugars kkdddddddddkekek, PS) | 24% | –
95 | AGACTTCTTACGACTT (sugars k3 d10 k3, PS) | 41% | –
96 | GCTGTAAGAGTCAGTA (sugars k3 d9 k3 e1, PS) | 52% | –
97 | GATACCTGAAAAGCCC (sugars k3 d10 k3, PS) | 49% | –
98 | AAGACATTCTAGCCTG (sugars k3 d10 k3, PS) | 63% | –
